Assay: method code SF-AS, from Yamada, T.; Tsukamoto, Y.; Shimamura, H.; Banno, S.; Sato, M. (1983). Pyridazinones 4. synthesis anti secretory and anti ulcer activities of urea derivatives. Eur J Med Chem, 18(3)209-214.

Row | Compound | logP
1 | CC(C)NC(=O)NCCCCn1nc(-c2ccccc2)ccc1=O | 1.91
2 | CCNC(=O)NCCCCCCn1nc(-c2ccccc2)ccc1=O | 1.81
3 | CNC(=O)NCCCCn1nc(-c2ccccc2)ccc1=O | 1.23
4 | CC(C)(C)NC(=O)NCCCCn1nc(-c2ccccc2)ccc1=O | 2.07
5 | NC(=O)NCCCCCCn1nc(-c2ccccc2)ccc1=O | 1.82
6 | CNC(=O)NCCCCCCn1nc(-c2ccccc2)ccc1=O | 1.31
7 | NC(=O)NCCn1nc(-c2ccccc2)ccc1=O | 0.52
8 | CNC(=O)NCCCCCCCCn1nc(-c2ccccc2)ccc1=O | 0.84
9 | CCN(CC)C(=O)NCCCCCCn1nc(-c2ccccc2)ccc1=O | 1.85
10 | CCN(CC)C(=O)NCCCn1nc(-c2ccccc2)ccc1=O | 1.72
11 | CN(C)C(=O)NCCCCCCn1nc(-c2ccccc2)ccc1=O | 1.45
12 | Cc1ccc(S(=O)(=O)NC(=O)NCCCCn2nc(-c3ccccc3)ccc2=O)cc1 | 1.77
13 | CN(C)C(=O)NCCCCn1nc(-c2ccccc2)ccc1=O | 1.58
14 | NC(=O)NCCCCCn1nc(-c2ccccc2)ccc1=O | 1.08
15 | CNC(=O)NCCn1nc(-c2ccccc2)ccc1=O | 0.39
16 | NC(=O)NCCCn1nc(-c2ccccc2)ccc1=O | 0.69

Row | Compound | logP
17 | CCCNC(=O)NCCCCn1nc(-c2ccccc2)ccc1=O | 1.71
18 | CCN(CC)C(=O)NCCCCn1nc(-c2ccccc2)ccc1=O | 1.89
19 | CCNC(=O)NCCCCCn1nc(-c2ccccc2)ccc1=O | 1.76
20 | CCNC(=O)NCCCn1nc(-c2ccccc2)ccc1=O | 1.68
21 | CNC(=O)NCCCn1nc(-c2ccccc2)ccc1=O | 1.16
22 | O=C(NCCCCn1nc(-c2ccccc2)ccc1=O)Nc1ccccc1 | 2.32
23 | O=C(NCCCCCn1nc(-c2ccccc2)ccc1=O)NC1CCCCC1 | 2.03
24 | CCNC(=O)NCCCCn1nc(-c2ccccc2)ccc1=O | 1.83
25 | CN(C)C(=O)NCCCn1nc(-c2ccccc2)ccc1=O | 1.61
26 | CNC(=O)NCCCCCn1nc(-c2ccccc2)ccc1=O | 1.26
27 | CNC(=O)NCCCCCCCn1nc(-c2ccccc2)ccc1=O | 1.06
28 | O=C(NCCCCn1nc(-c2ccccc2)ccc1=O)NC1CCCCC1 | 1.99
29 | CCCCNC(=O)NCCCCn1nc(-c2ccccc2)ccc1=O | 2.2
30 | NC(=O)NCCCCn1nc(-c2ccccc2)ccc1=O | 1.21
31 | CN(C)C(=O)NCCCCCn1nc(-c2ccccc2)ccc1=O | 1.74
